“Also recorded” adds a separate entry of the source.
What was measured:
Format in all cases: cell-based
SW837 cells = assay: Label-free determination of cell proliferation, SW837 confluency, AMG510 (Example 8); details: for cell proliferation (SW837 confluency), drug alone: SW837 (KRAS G12C), 49 days, single drug: 1 μM Compound A, 0.2 μM Compound C, 0.2 μM CCS1477, 1 μM FT-6876, 0.2 μM GNE-781, 100 nM AMG510; for development of drug resistance / re-growth, combined with AMG510: CBP/p300 bromodomain inhibitor combined with 100 nM AMG510
Description: 2000 SW837 cells [ATCC; CCL-235, a CRC (rectal adenocarcinoma) cell line carrying a KRAS G12C mutation], were seeded into 96 well plates (Greiner BioOne 655090) one day prior to drug treatment in RPMI medium containing 10% FCS and 2 mM L-Glutamine. The next day, the wells were imaged label-free using brightfield imaging on a CELIGO Image Cytometer to determine the initial cell confluency. […] Plates were regularly imaged over weeks using brightfield mode (CELIGO Imaging Cytometer) to track cell confluency in each well over time. Growth medium and treatments were replenished twice weekly. […] Confluency was determined using CELIGO software's built-in “confluence” analysis tool in the brightfield mode.

SNU-1411 cells [1] = assay: Label-free determination of cell proliferation, SNU-1411 confluency, AMG510 (Example 6); details: for cell proliferation (SNU-1411 confluency), drug alone: SNU-1411 (KRAS G12C), 32 days, single drug: 1 μM Compound A, 0.2 μM Compound C, 0.2 μM CCS1477, 1 μM FT-6876, 0.2 μM GNE-781, 300 nM AMG510; for development of drug resistance / re-growth, combined with AMG510: CBP/p300 bromodomain inhibitor combined with 300 nM AMG510
Description: (§1) 2000 SNU-1411 cells [KCLB; 01411, a CRC (rectal adenocarcinoma) cell line carrying a KRAS G12C mutation], were seeded into 96 well plates (Greiner BioOne 655090) one day prior to drug treatment in RPMI medium containing 10% FCS and 2 mM L-Glutamine. The next day, the wells were imaged label-free using brightfield imaging on a CELIGO Image Cytometer to determine the initial cell confluency. […] Plates were regularly imaged over weeks using brightfield mode (CELIGO Imaging Cytometer) to track cell confluency in each well over time. Growth medium and treatments were replenished twice weekly. […] Confluency was determined using CELIGO software's built-in “confluence” analysis tool in the brightfield mode.

NCI-H358 cells = assay: Label-free determination of cell proliferation, NCI-H358 cell number, AMG510 (Example 9)
Description: 2000 NCI-H358 cells [KCLB; 25807; a non-small cell lung cancer (NSCLC) cell line with KRAS G12C mutation] were seeded into 96 well plates (Greiner BioOne 655090) one day prior to drug treatment in RPMI medium containing 10% FCS and 2 mM L-Glutamine. The next day, the wells were imaged label-free using brightfield imaging on a CELIGO ImageCytometer to determine the initial cell number. […] The cells were regularly imaged over weeks using brightfield mode (CELIGO Imaging Cytometer) to track cell proliferation in each well over time. Growth medium and treatments were replenished twice weekly. […] Cell numbers were determined using CELIGO software's built-in “direct cell counting” analysis tool in the brightfield mode.

SNU-1411 cells [2] = assay: Label-free determination of cell proliferation, SNU-1411 confluency, MRTX849 (Example 7); details: for cell proliferation (SNU-1411 confluency), drug alone: SNU-1411 (KRAS G12C), 32 days, single drug: 1 μM Compound A, 0.2 μM Compound C, 0.2 μM CCS1477, 1 μM FT-6876, 0.2 μM GNE-781, 300 nM MRTX849; for development of drug resistance / re-growth, combined with MRTX849: SNU-1411, 32 days, CBP/p300 bromodomain inhibitor combined with 300 nM MRTX849
Description: as §1

Compound | cell proliferation (SW837 confluency), drug alone (SW837 cells) | re-growth in long-term culture, AMG510 alone (SW837 cells; SW837, 49 days, 100 nM AMG510 alone) | cell proliferation (SNU-1411 confluency), drug alone (SNU-1411 cells [1]) | re-growth in long-term culture, AMG510 alone (SNU-1411 cells [1]; SNU-1411, 32 days, 300 nM AMG510 alone) | cell proliferation (NCI-H358 cell number), drug alone (NCI-H358 cells; NCI-H358 (KRAS G12C), >20 days, single drug: 1 μM Compound A, 200 nM Compound C, 100 nM AMG510) | re-growth in long-term culture, AMG510 alone (NCI-H358 cells; NCI-H358, >20 days, 100 nM AMG510 alone) | development of drug resistance / re-growth, combined with AMG510 (SW837 cells; SW837, 49 days) | development of drug resistance / re-growth, combined with AMG510 (SNU-1411 cells [1]; SNU-1411, 32 days) | cell proliferation (SNU-1411 confluency), drug alone (SNU-1411 cells [2]) | development of drug resistance / re-growth, combined with MRTX849 (SNU-1411 cells [2]) | development of drug resistance / re-growth, combined with AMG510 (NCI-H358 cells; NCI-H358, >20 days, 1 μM Compound A or 200 nM Compound C combined with 100 nM AMG510)
C=CC(=O)N1CCN(c2nc(=O)n(-c3c(C)ccnc3C(C)C)c3nc(-c4c(O)cccc4F)c(F)cc23)[C@@H](C)C1 [AMG510] | initially prevented cell proliferation | re-grew | delayed cell proliferation initially for few days | re-grew | initially completely blocked cell proliferation | re-grew | – | – | – | – | –
CO[C@H]1CC[C@H](n2c([C@@H]3CCCC(=O)N3c3ccc(F)c(F)c3)nc3cc(-c4c(C)noc4C)ccc32)CC1 [CCS1477] | do not affect cell proliferation | – | do not affect cell proliferation | – | – | – | prevent the development of drug resistance | prevent the development of drug resistance | do not affect cell proliferation | prevent the development of drug resistance | –
CC(=O)N1C[C@H](c2nc(Nc3cccc(-c4cn(C)nn4)c3)cc(-c3cnccn3)n2)CC[C@@H]1C [Compound C, 1-((2S,5R)-2-methyl-5-(4-((3-(1-methyl-1H-1,2,3-triazol-4-yl)phenyl)amino)-6-(pyrazin-2-yl)pyrimidin-2-yl)piperidin-1-yl)ethan-1-one] | – | – | – | – | – | – | prevent the development of drug resistance | prevent the development of drug resistance | – | prevent the development of drug resistance | prevent the development of drug resistance; also recorded: completely prevented re-growth
COC(=O)N1c2ccc3c(nc(Cc4ccccc4)n3[C@H]3CCC[C@H](C(=O)O)C3)c2CC[C@@H]1C [FT-6876] | do not affect cell proliferation | – | do not affect cell proliferation | – | – | – | prevent the development of drug resistance | prevent the development of drug resistance | do not affect cell proliferation | prevent the development of drug resistance | –
CNC(=O)N1CCc2c(c(N3CCCc4cc(-c5cnn(C)c5)c(C(F)F)cc43)nn2C2CCOCC2)C1 [GNE-781] | do not affect cell proliferation | – | do not affect cell proliferation | – | – | – | prevent the development of drug resistance | prevent the development of drug resistance | do not affect cell proliferation | prevent the development of drug resistance | –

— patent US12472179B2, “Combination of a CBP/p300 bromodomain inhibitor and a KRAS inhibitor for the treatment of cancer” (TOLREMO THERAPEUTICS AG, priority 2020, dated 2025)
